Reference: publication PMC5931191, “Reversible stapling of unprotected peptides via chemoselective methionine bis-alkylation/dealkylation” (Chemical Science, 2018)
“Also recorded” adds a separate entry of the source. Each block holds one compound with its values, some of them ahead of it. Where a SMILES comes first, the peptide text is derived from it.

Tests used:
[1] = system: HeLa cells; experiment: Flow cytometry cellular uptake in HeLa cells; assay type: cell-based
[2] = system: U2OS cells; experiment: Flow cytometry cellular uptake in U2OS cells; assay type: cell-based; details: FITC-labelled peptides 10 µM, 4 h, 37 °C, FACS, Fig. S4 (legend not available)
[3] = system: U2OS cells; experiment: LDH release assay
Method: concentration of 10 μM in FBS free medium and incubated with the cells for 4 hours at 37°C. After that, the medium
was removed and the cells were gently washed 2 times with PBS and then fixed with 4% paraformaldehyde (Alfa
Aesar, MA) in PBS for 10 minutes. The cells were again washed 2 times with PBS and stained with 1μg/ml 4', 6-
diamidino-2-phenylindole (DAPI) (Invitrogen, CA) in PBS for 5 minutes. Images of peptide localization in cells were
taken on PerkinElmer confocal microscopy under the same parameters and processed using Volocity software package
LDH release was performed by using Cytotoxicity LDH Assay Kit-WST®. Briefly, ~10000 cells suspension was added
to each well of the 96 well plate and allowed to grow overnight. The cells were then incubated with the fresh medium
containing serial dilution of peptides at 37 °C for 4h. Lysis Buffer was added as positive control at 37 °C for 30min.
After that, 50μL of the incubation medium were taken out to another 96 well plate followed the addition of 50μL Working
Solution and incubated for 30min at room temperature. Then 25μL Stop Solution was added into the wells. The
absorbance at 490 nm was measured by a microplate reader (Perkin Elmer, Envision, 2104 Multilabel Reader). The
LDH release activity was calculated by (LDH% samples-LDH% blank) / (LDH% positive control -LDH% blank).

[4] = system: trypsin; experiment: In vitro trypsin digestion assay; details: peptide 1 mM in PBS pH 7.4, 100 µL + 1 µL trypsin (1 mg/mL) (1%), 37 °C, different time intervals, LC/MS peak detection at 254 nm; compared with linear peptide 1; Fig. 3C
Method: LC-MS spectra were carried out on SHIMAZU LC-MS 8030 (ESI-MS) in positive ion mode.
trypsin (1 mg/mL) was added and incubated at 37°C. At different time interval, the solution was mixed with 12%
trichloroacetic acid (H2O/CH3CN: 2:1) to inactivate the trypsin.
the peptide remaining was examined by LC/MS with a grace smart C18 250× 4.6mm column, using a 4% per minute
linear gradient from 10% to 70% acetonitrile over 15min. The amount of starting material left in each sample was

[5] = Dealkylation of cyclic peptides with 2-mercaptopyridine (regeneration of linear peptide); assay type: physicochemical; details: chemical stability under reductive conditions; 2-mercaptopyridine (10 equiv., 10 mM) in PBS pH 7.4, 37 °C, different time points, HPLC / LC-MS; Fig. 3A, B
Method: in linear gradient mixtures.
1. Preparation of alkylated sulfonium peptides[1]
The alkylated reagent (1.2 equiv)
Then the solution was purified by reversed […]
peptide can be gradually regenerated to the linear peptide.
To 100 µL of each solution 1 µL […]
linear gradient from 10% to 70% acetonitrile over 15min. […]
quantified by LC/MS-based peak detection at 254nm.
4. Flow Cytometry Analysis
T47D cells were seeded in
37°C), washed with PBS, and resuspended in PBS. […]
cytometer (Becton Dickinson) and CellQuest Pro (or CFlow plus).

[6] = target: T1, caspase-3 in U2OS cell lysates (Homo sapiens, UniProt P42574); experiment: AMC release assay in U2OS cell lysate; assay type: biochemical; details: peptide 5 µM, 24 h, Fig. 5D
T1 construct: endogenous in cells; host or cells: U2OS cells, ABT-737-induced, lysed
T1 sequence (P42574 29-175 limits assumed): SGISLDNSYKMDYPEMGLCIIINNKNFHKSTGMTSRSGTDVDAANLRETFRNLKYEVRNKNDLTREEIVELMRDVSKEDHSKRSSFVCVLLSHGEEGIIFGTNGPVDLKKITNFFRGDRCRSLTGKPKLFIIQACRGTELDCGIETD
T1 sequence (P42574 176-277 limits assumed): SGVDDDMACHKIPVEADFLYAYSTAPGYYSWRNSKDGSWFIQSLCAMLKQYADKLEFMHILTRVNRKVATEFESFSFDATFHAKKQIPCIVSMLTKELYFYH
Method: 8. AMC release Assays. […]
(§1) AMC conjugated peptides 16-19 (50 μL, 5μM)
All experiments were performed in triplicates with
blank control) to induce the activity of caspase-3.
(§2) collected by centrifugation.
(§3) Besides, an induced well pretreated with the caspase pan-

[7] = system: U2OS cells; experiment: AMC release (caspase-3) assay in live U2OS cells; assay type: cell-based; details: ABT-737 10 µM 1 h, peptide 5 µM, after incubation for 12 hours, Fig. S9
Method: (§4) experiments were performed in triplicates with consistent results.
(§5) 100μl U2OS cells were cultured in 96 well plate (~5000 cells / well) overnight, then 0.1 μl of ABT-737 stock solution (10 mM, 1 h) was added into half of the wells to induce apoptosis. After that, peptide 16, 17i, 18i, and 19 stock solution (final concentration of 5 µM) were added into the cells. At different time points, the fluorescence of the wells treated […]
(§6) difference in fluorescence yields between ABT-737 treated and untreated cells was plotted as a function of time to represent the caspase-3 activities in live cells.
(§7) U2OS cells were cultured in 24 well plates with imaging dishes (50000 cells/well) and then treated with peptide 17i, 18i and 19 (100µM) in FBS free medium for 4h. Then the medium was removed and the cells were cultured with a fresh medium containing 10mM GSH for 8h, 16h, or 24h. The release efficiency of AMC was monitored using fluorescence microscopy with pseudo-colored in blue as described.
(§8) Table S1. Conversion of peptide 1 to peptide 1a in different solvents at different time intervals.
(§9) Table S2. Peptide sequences and observed masses following HPLC purification. Calculated and Found m/z are presented as [M+H] + / [M/2+H] +/ [M/3+H] +/ [M/4+H] +.
(§10) Peptide Sequence Calculated mass Observed mass
(§11) (1 picture or pasted object on this page, not shown here)

[8] = system: U2OS cells; experiment: Confocal microscopy of AMC release in U2OS cells; assay type: cell-based
Method: as §4, §5, §6, §7, §8, §9, §10, §11

[9] = target: T2, Recombinant Human Caspase-3 protein (Homo sapiens, UniProt P42574); experiment: In vitro caspase-3 AMC release assay; assay type: biochemical; details: peptide 5 µM, caspase-3 0.4 ng/µL, 1 h, read every 5 min, Ex 340 nm / Em 450 nm, triplicates; Fig. 5C
T2 construct: purchased RnD SYSTEMS
T2 sequence (P42574 29-175 limits assumed): T1 sequence (P42574 29-175 limits assumed)
T2 sequence (P42574 176-277 limits assumed): T1 sequence (P42574 176-277 limits assumed)
Method: 8. AMC release Assays.
In vitro Caspase-3 assay:
as §1
All experiments were performed in triplicates with […]
blank control) to induce the activity of caspase-3. […]
as §2, §3

Compound: FITC-βA-(cyclo-c)-MRRRM-NH2 (sidechain bridge or staple) [11c, peptide 11 cyclized using linker c]
cellular uptake efficiency (flow cytometry) in the presence of serum ([1]; 10% fetal bovine serum, 5, 10, 20 µM, Fig. S5): same tendency as in the absence of serum
cellular uptake efficiency (flow cytometry) ([1]; FITC-labelled peptides 10 µM, 4 h, 37 °C, absence of serum, trypsin wash, FACS, Fig. 4C): best uptake; also recorded: better cellular uptake than the thioether cyclic peptide
cellular uptake efficiency (flow cytometry) [2]: best uptake

Compound: CCCC[C@@H]1NC(=O)[C@H](CC(=O)O)NC(=O)[C@@H](NC(C)=O)CSCc2ccc(cc2)-c2ccc(cc2)CSC[C@H](C(=O)N[C@@H](CC(=O)O)C(=O)Nc2ccc3c(C)cc(=O)oc3c2)NC1=O [18i] (HELM PEPTIDE1{[ac].C.D.[Nle].[dC].D.[Cc1cc(=O)oc2cc(N[*:1])ccc12]}|CHEM1{[c1cc(-c2ccc(C[*:2])cc2)ccc1C[*:1]]}$PEPTIDE1,CHEM1,2:R3-1:R1|PEPTIDE1,CHEM1,5:R3-1:R2$$$V2.0)
membrane toxicity (LDH release) ([3]; 160 µM, 4 h, 10% serum, Fig. S8): negligible membrane toxicity

Compound: CC(=O)N[C@@H](Cc1c[nH]c2ccccc12)C(=O)N[C@H]1CC[S+](C)Cc2ccc(cc2)-c2ccc(cc2)C[S+](C)CC[C@@H](C(N)=O)NC(=O)[C@H](CC(=O)O)NC(=O)CNC(=O)[C@H](CCCNC(=N)N)NC1=O (some centres unmarked) [1i]
trypsin stability (peptide remaining) [4]: significantly enhanced the trypsin stability

Compound: Ac-W-(cyclo-d)-MRGDM-NH2 (sidechain bridge or staple) [1d, peptide 1 Met bis-alkylated with linker d]
regeneration of the parental linear peptide 1 (dealkylation) [5]: time-dependent regeneration of the parental peptide 1

membrane lysis effect ([3]; Fig. S7B (confocal, 100 µM) and S8 (LDH release, 4 h, 10% serum)): membrane lysis effect
Compound: CCCC[C@H](NC(=O)[C@H](CC(=O)O)NC(=O)[C@H](CCCNC(=N)N)NC(=O)[C@H](CCCNC(=N)N)NC(=O)[C@H](CCCNC(=N)N)NC(=O)[C@H](CCCNC(=N)N)NC(=O)[C@H](CCCNC(=N)N)NC(=O)[C@H](CCCNC(=N)N)NC(=O)[C@H](CCCNC(=N)N)NC(=O)[C@H](CCCNC(=N)N)NC(=O)[C@H](CCCNC(=N)N)NC(C)=O)C(=O)N[C@@H](CC)C(=O)N[C@@H](CC(=O)O)C(=O)Nc1ccc2c(C)cc(=O)oc2c1 [compound 19] (HELM PEPTIDE1{[ac].R.R.R.R.R.R.R.R.R.D.[Nle].[Abu].D.[Cc1cc(=O)oc2cc(N[*:1])ccc12]}$$$$V2.0)

AMC release in cell lysate pretreated with pan caspase inhibitor FMK ([6]; U2OS lysate, FMK 100 µM): reduced significantly
time-dependent AMC release in cell lysate ([6]; lysate of U2OS cells induced with ABT-737 (10 µM, 1 h), without FMK, triplicates): increased gradually during 24 h
AMC release / susceptibility to caspase-3 in vitro [9]: not a suitable substrate for caspase-3
Compound: cyclo-i-Met-Asp-Nle-Met-Asp-AMC (sidechain bridge or staple) [17i, Met bis-alkylated peptide 17 with linker i]
caspase-3 activity (AMC release) in live cells [7]: higher caspase-3 activity than the linear peptide 16, while lower than 19
AMC fluorescence in cells (confocal) in the presence of serum ([8]; peptide 50 µM 4 h with 10% fetal bovine serum, GSH 10 mM 16 h, ABT-737 10 µM 1 h, Fig. S7A): weaker fluorescence intensity
AMC fluorescence in cells (confocal, 405 nm excitation) ([8]; peptide 100 µM 4 h in FBS free medium, then 10 mM GSH 8, 16 or 24 h, then ABT-737 10 µM 1 h, Fig. 5E, S7B): lighted gradually

AMC release / susceptibility to caspase-3 in vitro [9]: quick degradation
Compound: CCCC[C@H](NC(=O)[C@H](CC(=O)O)NC(=O)[C@H](CCSC)NC(C)=O)C(=O)N[C@@H](CCSC)C(=O)N[C@@H](CC(=O)O)C(=O)Nc1ccc2c(C)cc(=O)oc2c1 [compound 17] (HELM PEPTIDE1{[ac].M.D.[Nle].M.D.[Cc1cc(=O)oc2cc(N[*:1])ccc12]}$$$$V2.0)
